Measured values published in patent US5110976A, “Insecticidal composition comprising more than one active ingredient” (priority 1985, dated 1992).
In brackets after ≈: the same amount, converted by molar mass. Entries after “also recorded” stand apart in the source; their conditions may differ.

Key:
Musca domestica [1] = assay: Filter paper disc contact test (Table 11); assay type: in vivo, house fly (Musca domestica); settings: Musca domestica, 24 h
How it was run: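 Stereoisomers in 1:2 oil/acetone were applied to 9 cm filter paper discs, the acetone evaporated, and discs placed in Petri dishes with 15 flies each, three replicates per dose. Mortality was scored at 24 h and corrected by Abbott's formula.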

Tribolium confusum [2] = assay: Contact test on Tribolium confusum (Table 12); assay type: in vivo
How it was run: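 Compound in 1:2 oil/acetone impregnated onto 9 cm filter paper discs; after acetone evaporation, 15 insects per Petri dish exposed by contact, three replicates per dose. Mortality read at 24 hours and corrected by Abbott's formula.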

Tribolium confusum [3] = assay: Contact test, mixtures of Ia and Ib of various ratio (Table 13); assay type: in vivo, flour beetle (Tribolium confusum); settings: Tribolium confusum, 24 h
How it was run: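 Compounds in 1:2 oil/acetone impregnated onto 9 cm filter paper discs; after acetone evaporation, 15 beetles per Petri dish, three replicates per dose. Mortality read at 24 h and corrected by Abbott formula; Ia/Ib enantiomer-pair mixtures tested at various ratios.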

Colorado potato beetle = assay: Topical test on Colorado potato beetle (Table 14); assay type: in vivo, Colorado potato beetle (Leptinotersa decemlineata), imago
Method: In Table 14 the activity on Colorado potato beetle is shown.
The test materials are dissolved in 2-ethoxyethanol (Cellosolve). One 0.3 μl drop of the solution is applied to the abdominal sterna of the imago. The treatment is carried out by using 2 parallels and 10 insects for each dose. […]

Acanthoscelides obtectus = assay: Comparative contact test (Table 15); assay type: in vivo, bean weevil (Acanthoscelides obtectus), imago; settings: Acanthoscelides obtectus, 24 h
Method: (§1) The active ingredient is dissolved in a 1:2 mixture of oil and acetone; filter paper discs (Whatman No. 1, diameter 9 cm) are impregnated with the solutions of the corresponding stereoisomers and enantiomer-pairs, respectively. The acetone is allowed to evaporate, whereupon the insects are exposed to filter papers discs placed in Petri-dishes. Three parallels are used on each dose and 15 insects are placed into each Petri-dish. The percental mortality is determined after 24 hours. The corrected percent mortality is calculated by means of the Abbot Formula.
(§2) The comparative test of Ia, Ib and a 40:60 mixture of Ia:Ib is carried out on bean weevil (Acanthoscelides obtectus), flour-beetle, (Tribolium confusum), house fly (Musca domestica) and sheep maggot fly (Lucillia sericata). The test method described is Example 41.

tribolium confusum [4] = assay: Comparative contact test (Table 15); assay type: in vivo, flour-beetle (Tribolium confusum), imago; settings: 24 h
Method: as §1, §2

Musca domestica [5] = assay: Comparative contact test (Table 15); assay type: in vivo, house fly (Musca domestica), imago; settings: 24 h
Method: as §1, §2

Lucillia sericata = assay: Comparative contact test (Table 15); assay type: in vivo, sheep maggot fly (Lucillia sericata), imago; set-up: key: % mortality after 24 h, Abbott-corrected; settings: 1440 min
Method: as §1, §2

T. confusum = assay: Activity as function of time, toxic symptoms (Table 16); assay type: in vivo, flour beetle (T. confusum), imagos
How it was run: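 T. confusum imagos exposed in Petri dishes to filter-paper discs impregnated with isomer solutions in 1:2 oil/acetone, acetone evaporated; 3 replicates of 15 insects per dose. Insects lying on their backs counted at successive time points, expressed as percent.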

Hyphantria cunea = assay: Topical test on fall webworm (Table 18); assay type: in vivo, fall wetworm (Hyphantria cunea), L7-L8 larvae; settings: Hyphantria cunea, topical, 24 h
Method: The active ingredients are dissolved in 2-ethoxy-ethanol and the solutions are applied in the form of 0.2 μl droplets onto the back of fall wetworm (Hyphantria cunea) of L7 -L8 larvae stage. The treated worms are placed on strawberry leaves in Petri-dishes. The test is carried out by using […], 2 parallels and 10 insects for each dose. The killed worms are counted after 24 hours and the percental mortality rate is calculated.

Tetranychus urticae = assay: Potter Tower spray on mite-infested leaves (Table 19); assay type: in vivo, mites (Tetranychus urticae); settings: Tetranychus urticae, 24 h, mortality after 24 hours; read-out: approx. LD50
Method: Leaves already infested with mites (Tetranychus urticae) were sprayed under Potter Tower. Mortality after 24 hours on the treated leaves was compared with the control.

[6] = tested on: Leptinotarsa decemlineara larvae; assay: Paralysis of larvae on sprayed tomato plants (Table 23); assay type: in vivo, L3 stage larvae; settings: 6 hours
Method: Tomato plants pre-cultivated in pots are sprayed with a suspension of the active ingredient formed with a mixture of acetone and water. The treated plants are placed into isolators and infected with L3 stage Leptinotarsa decemlineara larvae. The percental ratio of paralyzed larvae which fall down from the plants is determined after 6 hours.

Which results are given for `CC1(C)[C@H](C(=O)O[C@H](C#N)c2cccc(Oc3ccccc3)c2)[C@@H]1C=C(Cl)Cl` (relative stereo) [Ia]?
mortality at 40 µg/disc (Musca domestica [1]; 0.04 mg/disc): 44%; mortality at 110 µg/disc (Musca domestica [1]; 0.11 mg/disc): 84%; mortality at 330 µg/disc (Musca domestica [1]; 0.33 mg/disc): 100%; mortality at 1000 µg/disc (Musca domestica [1]; 1.00 mg/disc): 100%; mortality at 3000 µg/disc (Musca domestica [1]; 3.00 mg/disc): 100%; mortality at 330 µg/disc (Tribolium confusum [2]; Tribolium confusum, 24 h, 0.33 mg/disc): 65%; mortality at 1000 µg/disc (Tribolium confusum [2]; Tribolium confusum, 24 h, 1.00 mg/disc): 94%; mortality at 3000 µg/disc (Tribolium confusum [2]; Tribolium confusum, 24 h, 3.00 mg/disc): 100%; synergism between the members of the enantiomer-pair (Tribolium confusum [2]; in vivo): does not take place; also recorded: no similar synergism takes place; mortality at 60 µg/disc (Tribolium confusum [3]; 0.06 mg/disc): 14%; mortality at 250 µg/disc (Tribolium confusum [3]; 0.25 mg/disc): 54%; mortality at 20 µg/disc (Tribolium confusum [3]; 0.02 mg/disc): 0%; mortality at 1000 µg/disc (Tribolium confusum [3]; 1.00 mg/disc): 100%; mortality at 0.05 µg/beetle (Colorado potato beetle; Leptinotarsa decemlineata, topical, read-out: 24 hours' mortality %, 0.05 μg/beetle): 50%; mortality at 0.1 µg/beetle (Colorado potato beetle; Leptinotarsa decemlineata, topical, read-out: 24 hours' mortality %, 0.10 μg/beetle): 55%; mortality at 0.2 µg/beetle (Colorado potato beetle; Leptinotarsa decemlineata, topical, read-out: 24 hours' mortality %, 0.20 μg/beetle): 75%; mortality at 0.4 µg/beetle (Colorado potato beetle; Leptinotarsa decemlineata, topical, read-out: 24 hours' mortality %, 0.40 μg/beetle): 80%; comparative activity (Colorado potato beetle; imago of Colorado potato beetle): more active than Ib; mortality at 20 µg/disc (Acanthoscelides obtectus; 0.02 mg/disc): 10%; mortality at 70 µg/disc (Acanthoscelides obtectus; 0.07 mg/disc): 37%; mortality at 220 µg/disc (Acanthoscelides obtectus; 0.22 mg/disc): 63%; mortality at 670 µg/disc (Acanthoscelides obtectus; 0.67 mg/disc): 95%; mortality at 2000 µg/disc (Acanthoscelides obtectus; 2.0 mg/disc): 100%; mortality at 6000 µg/disc (Acanthoscelides obtectus; 6.0 mg/disc): 100%; mortality at 20 µg/disc (tribolium confusum [4]; 0.02 mg/disc): 0%; mortality at 70 µg/disc (tribolium confusum [4]; 0.07 mg/disc): 18%; mortality at 220 µg/disc (tribolium confusum [4]; 0.22 mg/disc): 51%; mortality at 670 µg/disc (tribolium confusum [4]; 0.67 mg/disc): 100%; mortality at 2000 µg/disc (tribolium confusum [4]; 2.0 mg/disc): 100%; mortality at 6000 µg/disc (tribolium confusum [4]; 6.0 mg/disc): 100%; mortality at 20 µg/disc (Musca domestica [5]; 0.02 mg/disc): 36%; mortality at 70 µg/disc (Musca domestica [5]; 0.07 mg/disc): 63%; mortality at 220 µg/disc (Musca domestica [5]; 0.22 mg/disc): 88%; mortality at 670 µg/disc (Musca domestica [5]; 0.67 mg/disc): 100%; mortality at 2000 µg/disc (Musca domestica [5]; 2.0 mg/disc): 100%; mortality at 6000 µg/disc (Musca domestica [5]; 6.0 mg/disc): 100%; mortality (Lucillia sericata; 0.02 mg/disc): 0; mortality (Lucillia sericata; 0.07 mg/disc): 30; mortality (Lucillia sericata; 0.22 mg/disc): 29; mortality (Lucillia sericata; 0.67 mg/disc): 57; mortality (Lucillia sericata; 2.0 mg/disc): 60; mortality (Lucillia sericata; 6.0 mg/disc): 65; % of insects showing toxic symptoms (T. confusum; 30 minutes): 0%; % of insects showing toxic symptoms (T. confusum; 30 minutes, 0.33 mg/disc): 0%; % of insects showing toxic symptoms (T. confusum; 30 minutes, 1.00 mg/disc): 0%; % of insects showing toxic symptoms (T. confusum; 30 minutes, 3.00 mg/disc): 33%; % of insects showing toxic symptoms (T. confusum; 60 minutes): 0%; % of insects showing toxic symptoms (T. confusum; 60 minutes, 0.33 mg/disc): 0%; % of insects showing toxic symptoms (T. confusum; 60 minutes, 1.00 mg/disc): 16%; % of insects showing toxic symptoms (T. confusum; 60 minutes, 3.00 mg/disc): 88%; % of insects showing toxic symptoms (T. confusum; 120 minutes): 0%; % of insects showing toxic symptoms (T. confusum; 120 minutes, 0.33 mg/disc): 14%; % of insects showing toxic symptoms (T. confusum; 120 minutes, 1.00 mg/disc): 66%; % of insects showing toxic symptoms (T. confusum; 120 minutes, 3.00 mg/disc): 100%; % of insects showing toxic symptoms (T. confusum; 180 minutes): 10%; % of insects showing toxic symptoms (T. confusum; 180 minutes, 0.33 mg/disc): 49%; % of insects showing toxic symptoms (T. confusum; 180 minutes, 1.00 mg/disc): 100%; % of insects showing toxic symptoms (T. confusum; 180 minutes, 3.00 mg/disc): 100%; mortality at 0.023 µg/disc (Hyphantria cunea; 0.023 (μg/disc)): 40%; mortality at 0.047 µg/disc (Hyphantria cunea; 0.047 (μg/disc)): 60%; mortality at 0.094 µg/disc (Hyphantria cunea; 0.094 (μg/disc)): 65%; mortality at 0.188 µg/disc (Hyphantria cunea; 0.188 (μg/disc)): 80%; mortality at 0.375 µg/disc (Hyphantria cunea; 0.375 (μg/disc)): 90%; LC50 (Tetranychus urticae): ~0.056 mg/L (≈ 0.135 µM); % ratio of paralyzed larvae ([6]; 8 ppm): 18%; % ratio of paralyzed larvae ([6]; 40 ppm): 46%; % ratio of paralyzed larvae ([6]; 200 ppm): 100%; % ratio of paralyzed larvae ([6]; 1000 ppm): 100%
